# Laboratory results from the supplement of paper PMC9663587.
# Compound: CC(=O)c1c(C)c2cnc(Nc3ccc(N4CCNCC4)cn3)nc2n(C2CCCC2)c1=O
# Assay: increase in dead-cell fraction, 72 h; higher = more death;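 also: breast cancer cell lines in 384-well plates, stained with Hoechst plus LIVE/DEAD far red dye and imaged, cells above an LDR intensity threshold counted dead, Hoechst-negative corpses included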
# Conditions: 3.162 µM
row,Cell Line,increase in dead-cell fraction
1,HCC38,0.0488
2,HCC70,-0.0047

# Compound: CN(C)C/C=C/C(=O)Nc1ccc(C(=O)Nc2cccc(Nc3ncc(Cl)c(-c4c[nH]c5ccccc45)n3)c2)cc1 [THZ1]
# Assay: as above
# Conditions: 0.0001 µM
row,Cell Line,increase in dead-cell fraction
1,CAMA1,-0.0002
2,EFM19,-0.004
3,EVSAT,-0.0011
4,HCC38,-0.0033
5,HCC70,0.0011

# Same assay, conditions: 0.0003162 µM
row,Cell Line,increase in dead-cell fraction
1,CAMA1,0.0023
2,EFM19,-0.0048
3,EVSAT,0.0011
4,HCC38,-0.0036
5,HCC70,0.0017

# Same assay, conditions: 0.001 µM
row,Cell Line,increase in dead-cell fraction
1,CAMA1,-0.002
2,EFM19,-0.0107
3,EVSAT,0.0012
4,HCC38,-0.0076
5,HCC70,-0.0087

# Same assay, conditions: 0.003162 µM
row,Cell Line,increase in dead-cell fraction
1,CAMA1,-0.0017
2,EFM19,-0.0093
3,EVSAT,0.0031
4,HCC38,-0.0032
5,HCC70,0.0017

# Same assay, conditions: 0.01 µM
row,Cell Line,increase in dead-cell fraction
1,CAMA1,0.0023
2,EFM19,-0.0068
3,EVSAT,0.0078
4,HCC38,0.0133
5,HCC70,0.0017

# Same assay, conditions: 0.03162 µM
row,Cell Line,increase in dead-cell fraction
1,CAMA1,0.0135
2,EFM19,-0.0102
3,EVSAT,0.0292
4,HCC38,0.0431
5,HCC70,0.227

# Same assay, conditions: 0.1 µM
row,Cell Line,increase in dead-cell fraction
1,CAMA1,0.0187
2,EFM19,-0.002
3,EVSAT,0.181
4,HCC38,0.249
5,HCC70,0.676

# Same assay, conditions: 0.3162 µM
row,Cell Line,increase in dead-cell fraction
1,CAMA1,0.0397
2,EFM19,0.0031
3,EVSAT,0.641
4,HCC38,0.303
5,HCC70,0.872

# Same assay, conditions: 1 µM
row,Cell Line,increase in dead-cell fraction
1,CAMA1,0.187
2,EFM19,0.215
3,HCC38,0.593
4,HCC70,0.868

# Compound: CN1CC[C@H](c2c(O)cc(O)c3c(=O)cc(-c4ccccc4Cl)oc23)[C@H](O)C1 [Flavopiridol]
# Assay: as above
# Conditions: 0.0001 µM
row,Cell Line,increase in dead-cell fraction
1,CAMA1,0.0013
2,EFM19,-0.0095
3,EVSAT,0
4,HCC38,-0.0026
5,HCC70,-0.003

# Same assay, conditions: 0.0003162 µM
row,Cell Line,increase in dead-cell fraction
1,CAMA1,0.0009
2,EFM19,-0.003
3,EVSAT,-0.0027
4,HCC38,-0.0024
5,HCC70,-0.0033

# Same assay, conditions: 0.001 µM
row,Cell Line,increase in dead-cell fraction
1,CAMA1,0.0022
2,EFM19,-0.0007
3,EVSAT,-0.0029
4,HCC38,-0.0081
5,HCC70,-0.0119

# Same assay, conditions: 0.003162 µM
row,Cell Line,increase in dead-cell fraction
1,CAMA1,0.0011
2,EFM19,0.0016
3,EVSAT,0.0039
4,HCC38,0.0129
5,HCC70,-0.0038

# Same assay, conditions: 0.01 µM
row,Cell Line,increase in dead-cell fraction
1,CAMA1,0.0016
2,EFM19,0.0002
3,EVSAT,0.0011
4,HCC38,0.0083
5,HCC70,0.0008

# Same assay, conditions: 0.03162 µM
row,Cell Line,increase in dead-cell fraction
1,CAMA1,0.0052
2,EFM19,-0.0106
3,EVSAT,0.0016
4,HCC38,0.0066
5,HCC70,0.009

# Same assay, conditions: 0.1 µM
row,Cell Line,increase in dead-cell fraction
1,CAMA1,0.0067
2,EFM19,-0.0044
3,EVSAT,0.0006
4,HCC38,0.0013
5,HCC70,0.0351

# Same assay, conditions: 0.3162 µM
row,Cell Line,increase in dead-cell fraction
1,CAMA1,0.0207
2,EFM19,0.0118
3,EVSAT,0.0111
4,HCC38,0.112
5,HCC70,0.487

# Same assay, conditions: 1 µM
row,Cell Line,increase in dead-cell fraction
1,CAMA1,0.107
2,EFM19,0.223
3,EVSAT,0.85
4,HCC38,0.449
5,HCC70,0.401

# Compound: CCc1cnn2c(NCc3ccc[n+]([O-])c3)cc(N3CCCC[C@H]3CCO)nc12
# Assay: as above
# Conditions: 0.0001 µM
row,Cell Line,increase in dead-cell fraction
1,CAMA1,-0.0004
2,EFM19,-0.0077
3,EVSAT,-0.0004
4,HCC38,-0.0032
5,HCC70,0.0046

# Same assay, conditions: 0.0003162 µM
row,Cell Line,increase in dead-cell fraction
1,CAMA1,-0.0044
2,EFM19,-0.0011
3,EVSAT,0.0006
4,HCC38,-0.0125
5,HCC70,0.0037

# Same assay, conditions: 0.001 µM
row,Cell Line,increase in dead-cell fraction
1,CAMA1,0.0031
2,EFM19,-0.006
3,EVSAT,0.0006
4,HCC38,-0.0108
5,HCC70,-0.003

# Same assay, conditions: 0.003162 µM
row,Cell Line,increase in dead-cell fraction
1,CAMA1,0.0113
2,EFM19,-0.0052
3,EVSAT,-0.003
4,HCC38,-0.0127
5,HCC70,-0.0058

# Same assay, conditions: 0.01 µM
row,Cell Line,increase in dead-cell fraction
1,CAMA1,0.0533
2,EFM19,-0.0076
3,EVSAT,-0.0037
4,HCC38,0.0353
5,HCC70,0.0306

# Same assay, conditions: 0.03162 µM
row,Cell Line,increase in dead-cell fraction
1,CAMA1,0.153
2,EFM19,0.0197
3,EVSAT,0.107
4,HCC38,0.436
5,HCC70,0.699

# Same assay, conditions: 0.1 µM
row,Cell Line,increase in dead-cell fraction
1,CAMA1,0.46
2,EFM19,0.148
3,HCC38,0.514
4,HCC70,0.734

# Same assay, conditions: 0.3162 µM
row,Cell Line,increase in dead-cell fraction
1,CAMA1,0.518
2,EFM19,0.323
3,HCC38,0.511
4,HCC70,0.721

# Same assay, conditions: 1 µM
row,Cell Line,increase in dead-cell fraction
1,CAMA1,0.56
2,EFM19,0.478
3,HCC38,0.536
4,HCC70,0.74
